In ChEMBL document CHEMBL4393689, “Discovery of fluorescent coumarin-benzo[b]thiophene 1, 1-dioxide conjugates as mitochondria-targeting antitumor STAT3 inhibitors” (Eur J Med Chem, 2019):
Calls of active or inactive are those of the source. The rule behind the calls is not given here.

Key:
4T1 [1] = experiment: Antitumor activity against mouse 4T1 cells implanted in BALB/c mouse assessed as reduction in tumor weight at 20 mg/kg, ip for 14 days; format: functional; details: 4T1, ip, 336 h
MDA-MB-231 [2] = experiment: Potency index, ratio of IC50 of BTP to ratio of IC50 of compound for antiproliferative activity against human MDA-MB-231 cells assessed as reduction in cell viability incubated for 48 hrs by MTT assay; format: functional
[3] = biological target: Proto-oncogene tyrosine-protein kinase Src (Homo sapiens) (UniProt P12931); experiment: Inhibition of Src in human MDA-MB-231 cells assessed as reduction in Src phosphorylation at 1 to 4 uM incubated for 24 hrs by Western blot analysis; format: cell-based
Sequence of Proto-oncogene tyrosine-protein kinase Src (Homo sapiens) (P12931 2-536 limits assumed): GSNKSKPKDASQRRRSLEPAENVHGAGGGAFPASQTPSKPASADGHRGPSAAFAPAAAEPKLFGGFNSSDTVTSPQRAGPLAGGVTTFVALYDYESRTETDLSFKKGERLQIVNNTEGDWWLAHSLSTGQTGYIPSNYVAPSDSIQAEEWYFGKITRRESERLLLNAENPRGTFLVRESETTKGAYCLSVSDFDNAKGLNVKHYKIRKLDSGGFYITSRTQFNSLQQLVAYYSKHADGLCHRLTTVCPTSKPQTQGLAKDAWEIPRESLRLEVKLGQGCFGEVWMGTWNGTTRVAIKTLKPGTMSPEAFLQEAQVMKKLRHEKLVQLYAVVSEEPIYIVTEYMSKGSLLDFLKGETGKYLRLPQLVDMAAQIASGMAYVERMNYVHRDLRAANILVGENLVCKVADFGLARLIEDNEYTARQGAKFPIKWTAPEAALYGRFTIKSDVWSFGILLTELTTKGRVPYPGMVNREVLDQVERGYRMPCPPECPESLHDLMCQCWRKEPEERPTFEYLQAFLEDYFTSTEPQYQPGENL

MDA-MB-231 [4] = experiment: Induction of apoptosis in human MDA-MB-231 cells assessed as late apoptotic cells at 2 uM incubated for 24 hrs by annexinV-FITC and propidium iodide staining based flow cytometric analysis (reference value: 1.0%); format: functional
MDA-MB-231 [5] = experiment: Induction of apoptosis in human MDA-MB-231 cells assessed as early apoptotic cells at 4 uM incubated for 24 hrs by annexinV-FITC and propidium iodide staining based flow cytometric analysis (reference value: 3.2%); format: functional
[6] = biological target: Signal transducer and activator of transcription 3 (Homo sapiens) (UniProt P40763); experiment: Inhibition of STAT3 in human MDA-MB-231 cells assessed as decrease in Bcl2 protein expression incubated for 24 hrs by Western blot analysis; format: cell-based
Sequence of Signal transducer and activator of transcription 3 (Homo sapiens) (P40763 whole entry): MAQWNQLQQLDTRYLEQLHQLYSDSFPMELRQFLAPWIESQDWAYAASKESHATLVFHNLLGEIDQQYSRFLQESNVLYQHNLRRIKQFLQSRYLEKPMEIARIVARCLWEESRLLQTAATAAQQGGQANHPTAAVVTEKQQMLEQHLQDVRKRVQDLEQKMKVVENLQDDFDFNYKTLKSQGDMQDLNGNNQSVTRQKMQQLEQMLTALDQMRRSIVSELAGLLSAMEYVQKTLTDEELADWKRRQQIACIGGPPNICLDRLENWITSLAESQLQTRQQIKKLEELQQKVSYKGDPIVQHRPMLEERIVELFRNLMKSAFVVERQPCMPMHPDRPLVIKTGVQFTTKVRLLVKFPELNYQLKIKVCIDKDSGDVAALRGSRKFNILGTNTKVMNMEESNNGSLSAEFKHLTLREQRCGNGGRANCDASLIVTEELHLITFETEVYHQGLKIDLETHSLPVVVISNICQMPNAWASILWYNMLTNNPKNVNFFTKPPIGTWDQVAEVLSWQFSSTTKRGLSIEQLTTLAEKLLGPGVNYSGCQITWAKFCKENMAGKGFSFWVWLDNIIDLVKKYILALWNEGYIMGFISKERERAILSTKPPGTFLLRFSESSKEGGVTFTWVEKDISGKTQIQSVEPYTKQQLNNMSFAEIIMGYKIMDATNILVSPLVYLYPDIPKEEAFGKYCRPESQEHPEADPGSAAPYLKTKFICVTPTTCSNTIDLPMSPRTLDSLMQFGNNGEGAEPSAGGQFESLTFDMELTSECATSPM

MCF-10A = experiment: Cytotoxicity against human MCF10A cells assessed as reduction in cell viability incubated for 48 hrs by MTT assay; format: cell-based
MCF7 [7] = experiment: Antiproliferative activity against human MCF7 cells assessed as reduction in cell viability incubated for 48 hrs by MTT assay; format: functional, cell-based; details: MCF7, 48 h
MDA-MB-231 [8] = experiment: Induction of apoptosis in human MDA-MB-231 cells assessed as necrotic cells at 2 uM incubated for 24 hrs by annexinV-FITC and propidium iodide staining based flow cytometric analysis (reference value: 0.8%); format: functional
L02 = experiment: Cytotoxicity against human LO2 cells assessed as reduction in cell viability incubated for 48 hrs by MTT assay; format: cell-based; details: L02, 48 h
MDA-MB-231 [9] = experiment: Induction of apoptosis in human MDA-MB-231 cells assessed as late apoptotic cells at 1 uM incubated for 24 hrs by annexinV-FITC and propidium iodide staining based flow cytometric analysis (reference value: 1.0%); format: functional
MCF7 [10] = experiment: Potency index, ratio of IC50 of BTP to ratio of IC50 of compound for antiproliferative activity against human MCF7 cells assessed as reduction in cell viability incubated for 48 hrs by MTT assay; format: functional
[11] = biological target: Signal transducer and activator of transcription 3 (Homo sapiens) (UniProt P40763); experiment: Inhibition of STAT3 in human MDA-MB-231 cells assessed as decrease in STAT3 phosphorylation at Tyr705 residue incubated for 24 hrs by Western blot analysis; format: cell-based
[12] = Drug accumulation in mitochondria of human MDA-MB-231 cells at 2 uM incubated for 60 mins by mitotracker red staining based confocal microscopy; format: ADME; details: mda-mb-231, 1 h
MDA-MB-231 [13] = experiment: Antiproliferative activity against human MDA-MB-231 cells assessed as reduction in cell viability incubated for 48 hrs by MTT assay; format: functional, cell-based; details: MDA-MB-231, 48 h
MDA-MB-231 [14] = experiment: Induction of apoptosis in human MDA-MB-231 cells incubated for 24 hrs by annexinV-FITC and propidium iodide staining based flow cytometric analysis; format: functional, cell-based
[15] = biological target: Signal transducer and activator of transcription 3 (Homo sapiens) (UniProt P40763); experiment: Inhibition of STAT3 in human MDA-MB-231 cells assessed as decrease in cyclin D1 protein expression incubated for 24 hrs by Western blot analysis; format: cell-based
MDA-MB-231 [16] = experiment: Induction of apoptosis in human MDA-MB-231 cells assessed as early apoptotic cells at 1 uM incubated for 24 hrs by annexinV-FITC and propidium iodide staining based flow cytometric analysis (reference value: 3.2%); format: functional
HCT-116 [17] = experiment: Antiproliferative activity against human HCT116 cells assessed as reduction in cell viability incubated for 48 hrs by MTT assay; format: functional, cell-based; details: HCT-116, 48 h
MDA-MB-231 [18] = experiment: Induction of apoptosis in human MDA-MB-231 cells assessed as increase in cleaved PARP levels at 1 to 4 uM incubated for 24 hrs by Western blot analysis; format: functional, cell-based
MDA-MB-231 [19] = experiment: Induction of apoptosis in human MDA-MB-231 cells assessed as viable cells at 4 uM incubated for 24 hrs by annexinV-FITC and propidium iodide staining based flow cytometric analysis (reference value: 95.1%); format: functional; details: MDA-MB-231, 24 h, read-out: Activity
[20] = biological target: Mitogen-activated protein kinase; ERK1/ERK2 (Homo sapiens) (UniProt P27361+P28482); experiment: Inhibition of ERK 1/2 in human MDA-MB-231 cells assessed as reduction in ERK 1/2 phosphorylation at 1 to 4 uM incubated for 24 hrs by Western blot analysis; format: cell-based
Sequence of Mitogen-activated protein kinase; ERK1/ERK2 (Homo sapiens) (P27361 whole entry, looked up): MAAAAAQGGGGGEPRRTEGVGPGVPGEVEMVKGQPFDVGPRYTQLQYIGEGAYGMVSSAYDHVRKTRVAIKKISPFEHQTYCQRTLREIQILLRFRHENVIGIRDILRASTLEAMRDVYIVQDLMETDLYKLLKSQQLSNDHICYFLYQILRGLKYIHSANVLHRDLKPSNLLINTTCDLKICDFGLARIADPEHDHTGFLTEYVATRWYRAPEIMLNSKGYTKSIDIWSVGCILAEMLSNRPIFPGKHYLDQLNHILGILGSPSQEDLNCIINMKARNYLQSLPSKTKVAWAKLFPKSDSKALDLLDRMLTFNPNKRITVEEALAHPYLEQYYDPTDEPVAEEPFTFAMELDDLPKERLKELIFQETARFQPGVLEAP
Sequence of Mitogen-activated protein kinase; ERK1/ERK2 (Homo sapiens) (P28482 whole entry, looked up): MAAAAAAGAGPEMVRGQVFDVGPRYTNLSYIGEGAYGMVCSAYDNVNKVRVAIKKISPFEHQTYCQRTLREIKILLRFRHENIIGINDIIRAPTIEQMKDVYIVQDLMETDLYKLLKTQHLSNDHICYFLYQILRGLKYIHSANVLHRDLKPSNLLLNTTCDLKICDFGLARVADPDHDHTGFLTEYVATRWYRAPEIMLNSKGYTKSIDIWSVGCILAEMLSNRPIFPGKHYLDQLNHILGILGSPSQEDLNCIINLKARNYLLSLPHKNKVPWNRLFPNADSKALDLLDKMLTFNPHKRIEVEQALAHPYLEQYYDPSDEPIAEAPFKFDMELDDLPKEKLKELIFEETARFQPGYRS

4T1 [21] = experiment: Antitumor activity against mouse 4T1 cells implanted in BALB/c mouse assessed as reduction in tumor volume at 20 mg/kg, ip for 14 days; format: functional; details: 4T1, ip, 336 h
MDA-MB-231 [22] = experiment: Induction of apoptosis in human MDA-MB-231 cells assessed as necrotic cells at 4 uM incubated for 24 hrs by annexinV-FITC and propidium iodide staining based flow cytometric analysis (reference value: 0.8%); format: functional
HepG2 = experiment: Potency index, ratio of IC50 of BTP to ratio of IC50 of compound for antiproliferative activity against human HepG2 cells assessed as reduction in cell viability incubated for 48 hrs by MTT assay; format: functional
MDA-MB-231 [23] = experiment: Induction of apoptosis in human MDA-MB-231 cells assessed as increase in cleaved caspase-3 levels at 1 to 4 uM incubated for 24 hrs by Western blot analysis; format: functional, cell-based
HCT-116 [24] = experiment: Potency index, ratio of IC50 of BTP to ratio of IC50 of compound for antiproliferative activity against human HCT116 cells assessed as reduction in cell viability incubated for 48 hrs by MTT assay; format: functional
4T1 [25] = experiment: Antitumor activity against mouse 4T1 cells implanted in BALB/c mouse assessed as reduction in tumor weight at 10 mg/kg, ip for 14 days; format: functional; details: 4T1, ip, 336 h
[26] = biological target: Signal transducer and activator of transcription 3 (Homo sapiens) (UniProt P40763); experiment: Inhibition of STAT3 in human MDA-MB-231 cells assessed as decrease in STAT3 phosphorylation at Ser727 residue incubated for 24 hrs by Western blot analysis; format: cell-based
[27] = biological target: Signal transducer and activator of transcription 3 (Homo sapiens) (UniProt P40763); experiment: Inhibition of STAT3 in human MDA-MB-231 cells assessed as decrease in STAT3-DNA binding at 1 to 4 uM incubated for 24 hrs by electrophoretic mobility shift assay; format: cell-based
MDA-MB-231 [28] = experiment: Induction of apoptosis in human MDA-MB-231 cells assessed as early apoptotic cells at 2 uM incubated for 24 hrs by annexinV-FITC and propidium iodide staining based flow cytometric analysis (reference value: 3.2%); format: functional
MDA-MB-231 [29] = experiment: Induction of apoptosis in human MDA-MB-231 cells assessed as late apoptotic cells at 4 uM incubated for 24 hrs by annexinV-FITC and propidium iodide staining based flow cytometric analysis (reference value: 1.0%); format: functional
MDA-MB-231 [30] = experiment: Induction of mitochondrial membrane depolarization in human MDA-MB-231 cells assessed as increase in green fluorescence incubated for 24 hrs JC-1 staining based flow cytometric analysis; format: functional, cell-based
4T1 [31] = experiment: Antitumor activity against mouse 4T1 cells implanted in BALB/c mouse assessed as reduction in tumor volume at 10 mg/kg, ip for 14 days; format: functional; details: 4T1, ip, 336 h

- inhibition [3]: inactive
- inhibition [6]: Dose-dependent effect
- IC50 (MCF7 [7]): 3.33 µM
- inhibition [11]: Dose-dependent effect
- Drug uptake [12]: Active
- IC50 (MDA-MB-231 [13]): 1.43 µM
- inhibition [15]: Dose-dependent effect
- IC50 (HCT-116 [17]): 1.89 µM
- inhibition [20]: inactive
- inhibition [26]: Dose-dependent effect
- inhibition [27]: Active
Structure (SMILES): CCN(CC)c1ccc2cc(C(=O)N3CCN(C(=O)C4=Cc5c(Br)cccc5S4(=O)=O)CC3)c(=O)oc2c1
- inhibition in vivo at 20 mg/kg (4T1 [1]): 56.9%
- Ratio IC50 (MDA-MB-231 [2]): 4.6 - 19
- Activity (MDA-MB-231 [4]): 1.8%
- Activity (MDA-MB-231 [5]): 15.6%
- IC50 (MCF-10A): 14.6 µM
- Activity (MDA-MB-231 [8]): 1.6%
- IC50 (L02): 35.6 µM
- Activity (MDA-MB-231 [9]): 1.2%
- Ratio IC50 (MCF7 [10]): 4.6 - 19
- Activity (MDA-MB-231 [14]): Dose-dependent effect
- Activity (MDA-MB-231 [16]): 5.4%
- Activity (MDA-MB-231 [18]): Active
- viability at 4 µM (MDA-MB-231 [19]): 77.5%
- inhibition in vivo at 20 mg/kg (4T1 [21]): 61.2%
- Activity (MDA-MB-231 [22]): 2.1%
- Ratio IC50 (HepG2): 4.6 - 19
- Activity (MDA-MB-231 [23]): Active
- Ratio IC50 (HCT-116 [24]): 4.6 - 19
- inhibition in vivo at 10 mg/kg (4T1 [25]): 39.7%
- Activity (MDA-MB-231 [28]): 7.4%
- Activity (MDA-MB-231 [29]): 4.8%
- Activity (MDA-MB-231 [30]): Dose-dependent effect
- inhibition in vivo at 10 mg/kg (4T1 [31]): 52.3%
